Assay results: US8987212B2, “Oleanoyl peptide composition and method of treating skin aging” (priority 2007, dated 2015)
Where a SMILES comes first, the peptide text is derived from it. The star is where a group is joined. X1 = CC1(C)CC[C@]2(C(=O)*)CC[C@]3(C)C(=CCC4[C@@]5(C)CC[C@H](O)C(C)(C)C5CC[C@]43C)C2C1

What was measured:
Human osteosarcoma cells = test: Collagen enhancement by Sirius Red staining; assay type: cell-based; details: at 1.25 ppm, 48 hrs, vs untreated cells
Protocol: Collagen enhancement was determined by using Sirius Red stain that binds with a greater specificity to Collagen type I and Collagen type III of the extracellular matrix. The stain bound to the collagen is dissolved and the optical density (OD) is measured spectrophotometrically using a Fluostar optima microtiter plate reader at 544 nm. The OD of the stain bound to collagen is directly proportional to the collagen content in the cells.
Human osteosarcoma cells from human bone were used for collagen enhancement studies. The cells were seeded with a seeding density of 10000 cells per well of a 24 well plate. Confluent monolayers of cells were initially treated with varying non cytotoxic concentrations of Oleanoyl peptide and vehicle (control) in the culture medium. For each concentration, 4 replicates were maintained and the analysis was performed twice such that the ‘n’ value is 8. After sample treatment, the cells were incubated in a CO2 incubator for 48 hrs. The cells were then developed by Sirius red staining technique to analyze the collagen enhancement. The cells were washed extensively with PBS. The cells were fixed using Bouin's fluid containing 1.3% picric acid, 35% formaldehyde and glacial acetic acid in 15:5:1 ration by incubating with 1 ml of Bouin's fluid per well for 1 hr at RT. The fixative is then removed by suction with micropipette and the cells were washed under running tap water for 15 minutes. After air drying the culture plate, the cells were stained using 0.1% Sirius red stain in 1.3% picric acid. 1 ml per well Sirius red stain was added and the cells were incubated for 1 hr under mild shaking of 70 RPM at RT in Orbitek Shaker. The stain was then removed by suction and the cells were extensively washed with 0.01N HCl to remove unbound dye. The dye bound to collagen was then dissolved in 0.2 ml of 0.1N NaOH per well for 30 minutes under mild shaking of 70 RPM in Orbitek Shaker at RT. The dye was then transferred to 96 well microplate and the OD was read at 544 nm in Fluostar Optima microplate reader.
The percentage enhancement in collagen with respect to the untreated cells considering the OD of untreated cells as optimal under normal conditions is calculated as follows, % enhancement in […]=[(100/C)×T]−100 Where C=absorbance due to collagen in untreated cells
T=absorbance due to collagen in sample treated cells

[1] = DPPH free radical scavenging assay
Protocol: The DPPH assay is often used to evaluate the ability of antioxidants to scavenge free radicals which are known to be a major factor in biological damages caused by oxidative stress. This assay is known to give reliable information concerning the antioxidant ability of the tested compounds. The assay is based on the color change of the stable free radical DPPH from purple to yellow as the radical is quenched by the antioxidant.
The assay mixture tubes containing 1.5 ml of 0.1 mM DPPH methanolic solution and varying concentrations of the sample in a total volume of 3 ml were incubated at 37° C. for 30 minutes in a shaking water bath. The reduction in absorbance which is directly proportional to the radical scavenging is measured spectrophotometrically at 517 nm. […] The percentage of scavenging is calculated as follows, % scavenging=[(C−T)/C]×100 Where C=absorbance in the absence of inhibitor
T=absorbance in the presence of inhibitor

[2] = system: Interleukin-1beta (IL-1β); test: Extracellular IL-1β from LPS-challenged human neutrophils; assay type: cell-based; details: for % activity IL-1β expression against LPS control: ↓ = inhibition
Protocol: (§1) Experimental observations were made in human neutrophil that were challenged with LPS. […] Rolipram at 100 μg/ml dose level was used as a standard drug to observe the authenticity and reproducibility of the experimental design.

Nitric Oxide (NO) = test: Extracellular nitric oxide from LPS-challenged human neutrophils; assay type: cell-based; details: for % activity NO expression against LPS control: ↓ = inhibition
Protocol: as §1
The Oleanoyl peptide was also screened for NO and PGE2 expression.

human skin = test: Effect of Oleanoyl peptide cream on human facial skin; assay type: in vivo; details: cream with Oleanoyl peptide (0.01%), twice daily, three weeks, photographs
Protocol: To study the potential effect of Oleanoyl peptide on human skin, candidates were selected in-house whose age ranging from about 30 to 60 with moderate to severe signs of aging. A topical composition comprising Oleanoyl peptide (0.01%) was prepared as a cream for application on the skin.
The cream containing Oleanoyl peptide was applied on the affected areas of facial skin of the candidates twice daily for a continuous period of three weeks. Photographs of the candidates were taken before and after three weeks of application of the cream.

[3] = target: Collagenase Type IV from Clostridium histolyticum; details: Collagenase Type IV 0.2 U/ml, DQ gelatin, 30 minutes
[4] = target: porcine pancreatic elastase (Sus scrofa, UniProt P00772); test: EnzChek Elastase Assay, elastase inhibitory potential
Chain of porcine pancreatic elastase (P00772 27-266): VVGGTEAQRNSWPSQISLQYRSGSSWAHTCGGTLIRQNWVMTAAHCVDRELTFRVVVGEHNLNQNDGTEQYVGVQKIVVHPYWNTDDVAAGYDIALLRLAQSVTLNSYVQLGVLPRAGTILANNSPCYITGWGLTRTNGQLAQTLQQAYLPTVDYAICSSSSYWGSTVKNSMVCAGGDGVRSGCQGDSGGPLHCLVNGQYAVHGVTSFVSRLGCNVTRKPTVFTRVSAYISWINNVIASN
Description: The EnzChek kit contains DQelastin, fluorescein conjugated soluble bovine neck ligament elastin. This substrate is efficiently digested by elastase to yield highly fluorescent peptides. […] Elastase used for the assay is purified from porcine pancreas.
T=absorbance due to elastase activity in the presence of inhibitor

## C[C@@H](O)[C@H](NC(=O)[C@H](CCCCN)NC(=O)[C@]12CCC(C)(C)CC1C1=CCC3[C@@]4(C)CC[C@H](O)C(C)(C)C4CC[C@@]3(C)[C@]1(C)CC2)C(=O)N[C@H](C(=O)N[C@@H](CCCCN)C(=O)N[C@@H](CO)C(=O)O)[C@@H](C)O (stereo partly drawn) [Oleanoyl peptide, Oleanoyl-Lys-Thr-Thr-Lys-Ser-OH] (X1-KTTKS-OH)
Human osteosarcoma cells
  enhancement in collagen: 17%
[1]; at 300 μg/ml
  Anti-oxidant activity by DPPH Method, % inhibition: 29% inhibition at 300
[1]; result in words
  Anti-oxidant activity by DPPH Method: shows DPPH scavenging activity
[2]; test sample 0.125 μg/ml
  Concentration of IL-1β produced (pg/ml) Mean ± S.E.: 130.79 ± 3.07 pg/mL
  % activity IL-1β expression against LPS control: 6.29↓ %
[2]; test sample 0.25 μg/ml
  Concentration of IL-1β produced (pg/ml) Mean ± S.E.: 119.44 ± 2.23 pg/mL
  % activity IL-1β expression against LPS control: 14.42↓ %
[2]; test sample 0.5 μg/ml
  Concentration of IL-1β produced (pg/ml) Mean ± S.E.: 109.72 ± 3.21 pg/mL
  % activity IL-1β expression against LPS control: 21.39↓ %
[2]; test sample 1 μg/ml
  Concentration of IL-1β produced (pg/ml) Mean ± S.E.: 96.61 ± 3.63 pg/mL
  % activity IL-1β expression against LPS control: 31.78%
[2]; test sample 2 μg/ml
  Concentration of IL-1β produced (pg/ml) Mean ± S.E.: 102.08 ± 2.61 pg/mL
  % activity IL-1β expression against LPS control: 26.86↓ %
[2]; test sample 4 μg/ml
  Concentration of IL-1β produced (pg/ml) Mean ± S.E.: 100.45 ± 3.78 pg/mL
  % activity IL-1β expression against LPS control: 28.03↓ %
[2]; test sample 1 μg/ml, listed as OP
  % activity IL-1β expression against LPS control: 30.78↓ %
Nitric Oxide (NO); test sample 0.125 μg/ml
  Concentration of NO produced (μmol/ml) Mean ± S.E.: 42.77 ± 1.42 µmol/mL
  % activity NO expression against LPS control: 3.51↓ %
Nitric Oxide (NO); test sample 0.25 μg/ml
  Concentration of NO produced (μmol/ml) Mean ± S.E.: 41.21 ± 1.05 µmol/mL
  % activity NO expression against LPS control: 7.03↓ %
Nitric Oxide (NO); test sample 0.5 μg/ml
  Concentration of NO produced (μmol/ml) Mean ± S.E.: 39.25 ± 1.08 µmol/mL
  % activity NO expression against LPS control: 11.45↓ %
Nitric Oxide (NO); test sample 1 μg/ml
  Concentration of NO produced (μmol/ml) Mean ± S.E.: 34.12 ± 2.00 µmol/mL
  % activity NO expression against LPS control: 23.03↓ %
Nitric Oxide (NO); test sample 2 μg/ml
  Concentration of NO produced (μmol/ml) Mean ± S.E.: 30.21 ± 1.18 µmol/mL
  % activity NO expression against LPS control: 31.85%
Nitric Oxide (NO); test sample 2 μg/ml, listed as OP
  % activity NO expression against LPS control: 31.85↓ %
Nitric Oxide (NO); test sample 4 μg/ml
  % activity NO expression against LPS control: 29.66↓ %
Human skin
  effect on dark circles under the eye: reduction of dark circles under the eye
  effect on hyperpigmentation: reduction in hyperpigmentation
  effect on skin thickness: improvement in skin thickness
  effect on wrinkles: wrinkles are softened
[3]
  Collagenase inhibition (IC50 μg/ml): 119 µg/mL
[4]
  IC50: 143 µM
